Read-outs that look alike come from different tables or passages of the source.
Key:
HCT 116 (colon) = test: MS detection of ZMP in cultured cells; type: cell-based; conditions: Homo sapiens, 16 hours
Method: (§1) Cells lines were acquired from cell banks, see supplemental material, grown using the cell banks recommended culture conditions (Supplemental Table 3). In some experiments noted “low folate” the cells were washed and grown in folate free RPMI-1640 media (Gibco #27016-021) supplemented with 5 ml 1 M Hepes, 5 ml 100 mM Na pyruvate, 2.5 mg/ml glucose and 10% defined FBS (Hyclone #SH30070) per 500 mL media for 5–7 days to deplete intracellular folate levels prior to the start of the experiment. Where noted, cells were maintained in complete “high folate” RPMI-1640 media (ATCC #30-2001) with 10% defined FBS to contrast with the low folate conditions.
(§2) ZMP was detected in cultured cells via mass spec analysis. Cells were plated in 96-well plates at 25,000 cells per well in 100 µL with either high or low folate RPMI media and incubated overnight at 37 °C with 5% CO2. Cells were treated with inhibitor compounds for 16 hours, 0.5% DMSO final concentration. Growth media was decanted and cells were lysed for 10 min at room temperature with 50 µL per well of 1x Sure Fire Lysis buffer (Perkin Elmer, SureFire kit component). Aliquots (40 µL) of standard or sample were combined in a deep 96-well plate with 160 µL of internal standard solution containing ^13C5-ZMP (custom synthesis) and ^13C5-AICAr (custom synthesis) at 100 ng/mL in 40 mM ammonium acetate, pH 4. 400 µL of dichloromethane was added to each sample. Samples were sealed, vortexed for 5 minutes, and placed in the refrigerator for at least 30 minutes. The samples were centrifuged at 4 °C for 10 minutes at 16,600 g. 75 µL of the aqueous layer were transferred to a clean 96-well plate and seal prior to analysis.
(§3) The LC-MS method utilizes a Shimadzu Prominence 20 A HPLC system connected to an AB Sciex 5500™ or an AB Sciex 6500™ triple quadrupole mass spectrometer. Extracted samples were separated using a Thermo Hypercarb™ Javelin guard column (2.1 × 20 mm, 5 µm) with an injection volume of 15 µL and a flow rate of 1 mL/minute.
(§4) ZMP, AICAr and dUMP were detected using positive ion TurboIonSpray® multiple reaction monitoring mode and the data were processed with AB Sciex MultiQuant™. Back-calculated ZMP concentrations were fit to a four-parameter logistic equation using ACTIVITYBASE 4.0 to determine EC50 values relative to the maximum observed metabolite levels.

NCI-H1155 (lung) = test: MS detection of ZMP in cultured cells; type: cell-based; conditions: Homo sapiens, 16 hours
Method: as §1, §2, §3, §4

NCI-H1299 = test: MS detection of ZMP in cultured cells; type: cell-based; conditions: Homo sapiens, low folate RPMI media, 16 hours
Method: as §1, §2, §3, §4

SNU-16 (gastric) = test: MS detection of ZMP in cultured cells; type: cell-based; conditions: Homo sapiens, 16 hours
Method: as §1, §2, §3, §4

SW620 (colon) = test: MS detection of ZMP in cultured cells; type: cell-based; conditions: Homo sapiens, 16 hours
Method: as §1, §2, §3, §4

[1] = tested on: AMPK T172 phosphorylation in MDA-MB-231met2; test: Western analysis after overnight treatment in tissue culture; type: cell-based, human; conditions: 0 to 20 μM, RPMI media
Method: (§5) The levels of total actin, AMPKα and P70S6K are also shown. […] Full images and the croppings used in this figure are shown in Supplemental Figures S4–S13.
(§6) Antibodies were purchased as follows: pAMPK Thr172 (Cell Signaling #2535), p-p70S6 Thr389 (Cell Signaling #9205), total p70S6 (Cell Signaling #2708), total AMPKα (Cell Signaling #2793) and Actin (Sigma #A5441). Frozen tumor samples were lysed with 500 µL ice cold lysis buffer plus Halt protease inhibitor (ThermoFisher #78430) using a Power Gen 125 tissue grinder (Fisher Scientific). Western blots were run as described in the supplemental material.
(§7) Western Blots: Lysis buffer is 0.01 mg/mL Leupeptin, 0.01 mg/mL Trypsin-Chymotrypsin, 0.01 mg/mL TPCK, 0.1 mg/mL Aprotinin, 60 mM β-Gly PO4, 1% Triton-100, 25 mM Tris pH 7.5, 2.5 µM Na2Pyrophosphate, 150 mM NaCl, 0.76 mg/mL TAME, 6.2 mg/mL PNPP, 0.8 mg/mL Benzamidine, 0.2 mg/mL Na3V04, 0.42 mg/mL NaF, 0.5 mg/mL PMSF or PEFA, 1 mM DTT, 15 mM EDTA pH 8.0, 5 mM EGTA pH 8.0, 1 µM Okadaic acid, and 1 µM microcystine. RNA and DNA were degraded by addition of Benzonase (Novagen) with a 30 min incubation on ice. Lysates were cleared by centrifugation at 4 °C for 10 min at 16,000 x g. Protein content was measured using Pierce BCA protein assay kit (Thermo Scientific). Twenty ug of total protein was resolved on a 4-20% Tris HCl Criterion XT precast gel (BioRad) at 100 V for 90 minutes. Transfer electrophoresed proteins to a 0.2 µm nitrocellulose membrane using Trans Blot Turbo System (BioRad). Block membranes for 1 hr at RT in Odyssey blocking buffer (LiCor). Probe overnight 4°C for primary antibodies. Wash blots 3 x 5 min in 20 mL PBS-0.1% Tween-20.

[2] = tested on: AMPK T172 phosphorylation in NCI-H460; test: as above; type: cell-based, human; conditions: 0 to 20 μM, RPMI media
Method: as §5, §6, §7

[3] = tested on: P70S6K T389 phosphorylation in MDA-MB-231met2; test: as above; type: cell-based, human; conditions: 0 to 20 μM, RPMI media
Method: as §5, §6, §7

[4] = tested on: P70S6K T389 phosphorylation in NCI-H460; test: as above; type: cell-based, human; conditions: 0 to 20 μM, RPMI media
Method: as §5, §6, §7

[5] = tested on: MDA-MB-231met2 xenografts; test: Pharmacodynamic response of tumor metabolites, single PO dose, standard chow; type: in vivo, mouse
Text: Figure 4 Pharmacodynamic response of ZMP (purple), AICAR (blue), […] (green), dUMP (red), AMP (aqua) & GMP (orange) metabolites in tumors following a single PO dose of LSN3213128 in athymic nude mice.

FGFR1 = biological target: T1, FGFR1 (Homo sapiens, UniProt P11362); test: CEREP protein kinase assay; type: biochemical
T1 construct: purchased CEREP Panlabs (Eurofins)
T1 sequence (P11362 22-822): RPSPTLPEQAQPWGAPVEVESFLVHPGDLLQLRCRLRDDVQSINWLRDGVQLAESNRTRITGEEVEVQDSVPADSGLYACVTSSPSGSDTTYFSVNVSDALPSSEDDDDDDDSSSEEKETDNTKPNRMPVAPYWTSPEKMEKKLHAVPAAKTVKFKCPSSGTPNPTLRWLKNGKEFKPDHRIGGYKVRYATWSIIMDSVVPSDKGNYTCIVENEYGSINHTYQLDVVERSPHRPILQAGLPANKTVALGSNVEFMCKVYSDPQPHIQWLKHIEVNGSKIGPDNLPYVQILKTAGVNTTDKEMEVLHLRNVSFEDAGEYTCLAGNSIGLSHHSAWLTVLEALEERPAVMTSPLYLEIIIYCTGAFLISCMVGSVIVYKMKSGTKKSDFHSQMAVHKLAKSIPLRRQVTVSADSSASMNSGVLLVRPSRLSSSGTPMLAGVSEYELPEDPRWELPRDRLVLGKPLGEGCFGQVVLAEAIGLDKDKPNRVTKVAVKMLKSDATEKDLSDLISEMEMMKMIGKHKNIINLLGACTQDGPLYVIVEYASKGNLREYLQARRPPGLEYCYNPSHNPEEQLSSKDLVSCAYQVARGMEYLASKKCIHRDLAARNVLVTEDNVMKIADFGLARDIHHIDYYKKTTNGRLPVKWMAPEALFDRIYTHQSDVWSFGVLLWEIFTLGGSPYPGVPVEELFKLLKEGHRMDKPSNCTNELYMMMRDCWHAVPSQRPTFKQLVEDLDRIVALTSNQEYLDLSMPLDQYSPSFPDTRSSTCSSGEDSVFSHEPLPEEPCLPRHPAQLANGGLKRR

FGR = biological target: T2, FGR (Homo sapiens, UniProt P09769); test: CEREP protein kinase assay; type: biochemical
T2 construct: purchased CEREP Panlabs (Eurofins)
T2 sequence (P09769 whole entry): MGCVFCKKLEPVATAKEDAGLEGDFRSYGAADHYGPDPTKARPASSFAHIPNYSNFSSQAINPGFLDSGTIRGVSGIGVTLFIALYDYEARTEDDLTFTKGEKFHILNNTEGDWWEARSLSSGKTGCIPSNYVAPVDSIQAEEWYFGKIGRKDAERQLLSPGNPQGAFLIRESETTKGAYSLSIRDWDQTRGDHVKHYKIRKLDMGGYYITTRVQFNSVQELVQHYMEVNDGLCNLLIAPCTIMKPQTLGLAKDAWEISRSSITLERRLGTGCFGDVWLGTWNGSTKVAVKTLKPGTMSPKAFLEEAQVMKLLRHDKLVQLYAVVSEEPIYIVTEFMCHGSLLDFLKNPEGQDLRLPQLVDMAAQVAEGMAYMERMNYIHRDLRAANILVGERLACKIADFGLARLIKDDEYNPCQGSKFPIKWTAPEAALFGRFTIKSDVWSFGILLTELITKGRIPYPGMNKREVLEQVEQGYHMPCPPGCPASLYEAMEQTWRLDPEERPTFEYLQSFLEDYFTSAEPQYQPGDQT

[6] = RPMI media, read-out: ZMP EC50 Regular folate
[7] = low folate RPMI media, read-out: ZMP EC50 Low folate
[8] = MDA-MB-231met2 tumors, 4 h post treatment

Compound: O=c1[nH]ccc2cc(F)c(NS(=O)(=O)c3ccc(N4CC[C@@H](O)C4)s3)cc12 [LSN3213128, N-(6-Fluoro-1-oxo-1,2-dihydroisoquinolin-7-yl)-5-[(3R)-3-hydroxypyrrolidin-1-yl]thiophene-2-sulfonamide]
- EC50 (HCT 116 (colon); [6]): 369 ± 44 nM
- EC50 (HCT 116 (colon); [7]): 2.7 ± 3.3 nM
- EC50 (NCI-H1155 (lung); [6]): 380 nM
- EC50 (NCI-H1155 (lung); [7]): 2.3 nM
- EC50 (NCI-H1299): 4.1 nM
- EC50 (SNU-16 (gastric); [6]): 2500 nM
- EC50 (SNU-16 (gastric); [7]): 2 nM
- EC50 (SW620 (colon); SW-620, RPMI media, read-out: ZMP EC50 Regular folate): 600 nM
- EC50 (SW620 (colon); SW-620, low folate RPMI media, read-out: ZMP EC50 Low folate): 4.3 ± 0.9 nM
- AMPK T172 phosphorylation [1]: expected increase
- phosphorylated AMPK T172 [2]: not increased
- P70S6K T389 phosphorylation [3]: corresponding decrease
- phosphorylation of P70S6K T389 [4]: inhibits the phosphorylation
- change in tumor ZMP [5, 8]: 15 fold
- change in tumor purine levels (AMP and GMP) [5, 8]: twofold
- dose at which tumor ZMP response appeared to saturate ([5]; MDA-MB-231met2 xenografts, nude mice on standard chow, 4 h post PO dose): 10 mg/kg
- tumor dUMP levels ([5]; MDA-MB-231met2 xenografts, standard chow, 4 h, up to 100 mg/kg): did not rise
- inhibition at 0.2 µM (FGFR1; @ 0.2 uM): -9.3%
- inhibition at 2 µM (FGFR1; @ 2 uM): 0.634%
- inhibition at 20 µM (FGFR1; @ 20 uM): 10.3%
- inhibition at 0.2 µM (FGR; @ 0.2 uM): -8.47%
- inhibition at 2 µM (FGR; @ 2 uM): 3.62%
- inhibition at 20 µM (FGR; @ 20 uM): 42.3%

Source: article PMC6193938, “Characterization of a novel AICARFT inhibitor which potently elevates ZMP and has anti-tumor activity in murine models” (Scientific Reports, 2018)
